Each block holds one substance with its values, some of them ahead of it. [ ]: non-standard residue; d: D form. The star is where a group is joined. YPEG 2×20 kDa = Y-shaped PEG of 2×20 kDa; Pent4ynoyl = C#CCCC(=O)*; F5 = not defined here; F6 = not defined here; βAla = NCCC(=O)O
How the values were obtained:
[1] = target: T1, Recombinant human Cathepsin B (Homo sapiens, UniProt P07858); assay: Enzyme activation profile of Q65, Cathepsin B; format: biochemical; conditions: probe 0.5 μM, enzyme 0.05 μM, room temperature, monitored 0-24 hours; FIG. 5
T1 construct: purchased R&D Systems
Procedure: The reactions were performed with appropriate buffer at room temperature in a 96-well plate with a final assay volume of 250 μL and probe and enzyme concentrations of 0.5 μM and 0.05 μM, respectively. The buffer for Cathepsin B was 25 mM MES (pH 5.0), 1 mM DTT. Recombinant human Cathepsin B (R&D Systems) was activated in buffer of 25 mM MES (pH 5.0) and 5 mM DTT for 15 minutes at room temperature. Recombinant human Cathepsin L (R&D Systems) was activated in buffer of 50 mM MES (pH 6.0), 5 mM DTT, for 15 minutes on ice. Recombinant mouse Cathepsin Z (R&D Systems) was activated in buffer of 25 mM NaOAc (pH 3.0), 5 mM DTT for 5 minutes at room temperature. The buffer for plasmin (CalBiochem) and trypsin (Sigma) was PBS at pH 7.4.
The plate was incubated at room temperature and the activity monitored at 0, 1, 3, 5, and 24 hours with a Gemini (Molecular Devices) plate reader at excitation wavelength 663 nm, emission 690 nm, and cut off 665 nm. The activity was calculated as the fold of activation by comparing the fluorescence of the enzyme with probe to the fluorescence of probe alone.

[2] = system: inflamed atherosclerotic plaques of high cholesterol fed apoE-/- mice; assay: Cardiovascular disease imaging, fluorescence reflectance; format: in vivo; conditions: 2 nmol, 24 hours post-injection, ex vivo fluorescence reflectance imaging; FIG. 8
Procedure: High cholesterol fed apoE−/− mice were injected with 2 nmol of imaging agent and in vivo imaging was performed with ex vivo fluorescence reflectance imaging.

[3] = system: carrageenan induced paw edema; assay: Inflammation imaging, carrageenan induced paw edema; format: in vivo, BALB/c female mice; conditions: 1% carrageenan subcutaneously, fluorescence molecular tomography; FIG. 9
Procedure: Briefly, BALB/c female mice 6-8 weeks old (Charles River Laboratory, Wilmington, Mass.) were injected subcutaneously with a 1% solution of carrageenan in PBS. After 1 minute post-injection, mice were injected the imaging agent Q91. Imaging was conducted at various time points using a Fluorescence Molecular Tomography system (VisEn Medical, Woburn Mass.).

recombinant human MMP-13 = target: T2, recombinant human MMP-13 (Homo sapiens, UniProt P45452); assay: Enzyme activation of R22, MMP-13; format: biochemical; conditions: 0.5 μM R22, 0.05 μM enzyme, room temperature, 24 hours; FIG. 13
T2 construct: purchased
Procedure: (§1) Activation by recombinant enzymes was carried out in 250 μL volumes set up in 96 well plates. MMPs were activated prior to the reaction according to manufacturers' protocols. Reactions contained 0.5 μM of R22 and 0.05 μM of activated enzyme in the appropriate activation buffer for each enzyme and incubated at room temperature for 24 hours. The plates were read at 24 hours with excitation/emission wavelength 740/770 nm. Fluorescence readings were performed using a Gemini (Molecular Devices) Fluorescence Plate Reader. Wells in which no enzyme was added were used as controls. Fold activation was obtained by dividing the enzyme-activated read-out (in relative fluorescence units) by its corresponding control well.

trypsin = assay: Enzyme activation of R22, trypsin; format: biochemical; conditions: 0.5 μM R22, 0.05 μM enzyme, room temperature, 24 hours; FIG. 13
Procedure: as §1

[4] = system: Cathepsin B, Cathepsin K, Cathepsin L, or Cathepsin S; assay: Enzyme activation profiles of R51 to R59, cathepsins; format: biochemical; conditions: compound 0.5 uM, enzyme 0.05 uM, monitored for 24 hours; FIG. 15
Procedure: Compounds at a concentration of 0.5 uM were incubated with Cathepsin B, Cathepsin K, Cathepsin L, or Cathepsin S at a concentration of 0.05 uM. The reaction buffers used were as follows: Cathepsin K—50 mM MES, pH 5.0, 2.5 mM EDTA, 2.5 mM DTT; Cathepsin B—25 mM MES, pH 5.0, 1 mM DTT; Cathepsin S—50 mM NaOAc, pH 4.5, 5 mM DTT, 0.25M NaCl; Cathepsin L—50 mM MES, pH 6, 5 mM DTT. The activity was monitored for 24 hours with a Gemini (Molecular Devices) fluorescence plate reader at excitation 663 nm and emission 690 nm with a cut off of […].

[5] = system: atherosclerotic plaque in ApoE -/- knockout mice; assay: Imaging of macrophage activity in atherosclerotic plaque; format: in vivo; conditions: intravenous, 6 hours post-injection
Procedure: Age-matched C57BL6 wild type female mice (Charles river Laboratories) were fed a normal diet and ApoE −/− knockout female mice (Jackson Laboratories) were fed a high cholesterol diet for 10-20 weeks. The mice were injected intravenously with compounds of formula R51 ([mPEG-20kDa-Suc]-Lys(F6)-Gly-Phe-Leu-Gly-Lys(F6)-[NH2]) (SEQ ID NO:435) and R55 ([mPEG-20kDa-Suc]-Lys(F6)-Arg-Arg-Lys(F6)-[NH2]) (SEQ ID NO:438). The mice were then imaged at 6 and 24 hours by fluorescence molecular tomography or fluorescence reflectance using an FMT2500 (VisEn Medical, Bedford, Mass.).

- activation by Cathepsin B (fold of activation) [1]: activated by Cathepsin B
Substance: Pentynoyl-Lys(F5)-Gly-Phe-Leu-Gly-βAla-Lys(F5)-PEG20kDa (Pent4ynoyl-K(F5)GFLG[βAla]K(F5)-PEG20kDa; reading uncertain; also: printed as Pentynoyl-Lys(F5)-Gly-Phe-Leu-Gly-βAla-Lys(F5)-PEG20kDa) [Agent Q65]
- fluorescence in atherosclerotic plaques [2]: Fluorescence was detected in plaque-laden vascular sections in the aortic root, the arch and carotid arteries

Substance: Pentynoyl-Lys(F5)-Pro-Leu-Gly-Val-Arg-Lys(F5)-PEG20kDa (Pent4ynoyl-K(F5)PLGVRK(F5)-PEG20kDa; reading uncertain; also: printed as Pentynoyl-Lys(F5)-Pro-Leu-Gly-Val-Arg-Lys(F5)-PEG20kDa) [Agent Q91]
- fluorescence in carrageenan injected paw versus control paw [3]: significantly more fluorescence is observed in the mouse paw injected with carrageenan compared to the control paw

- activation by recombinant human MMP-13 (fold activation) (recombinant human MMP-13): activated primarily
- activation by trypsin (fold activation) (trypsin): activated primarily
Substance: [F6]-Gly-Pro-Leu-Gly-Val-Arg-Lys(F6)-[YPEG 2×20 kDa] (F6-GPLGVRK(F6)-{YPEG 2×20 kDa}; reading uncertain; also: printed as [F6]-Gly-Pro-Leu-Gly-Val-Arg-Lys(F6)-[YPEG 2×20 kDa]) [Agent R22]

Substance: [mPEG-20kDa-Suc]-Lys(F6)-Gly-Phe-Leu-Gly-Lys(F6)-[NH2] ({mPEG‑20kDa‑Suc}-K(F6)GFLGK(F6)-NH2; reading uncertain; also: printed as [mPEG-20kDa-Suc]-Lys(F6)-Gly-Phe-Leu-Gly-Lys(F6)-[NH2]) [Agent R51]
- activation by various Cathepsin proteases compared with the other imaging agents [4]: greater than that of the other imaging agents
- fluorescent signal in ApoE knockout mice versus wild type controls ([5]; fluorescence molecular tomography, FIG. 17): greater fluorescent signal in the ApoE knockout mice over controls
- fluorescent signal in ApoE knockout mice versus wild type controls ([5]; tomography and reflectance, FIG. 16): greater fluorescent signal in the ApoE knockout mice over controls

Reference: patent US9999687B2, “Fluorescent imaging agents” (VisEn Medical, Inc., priority 2008, dated 2018)
